Source: PubChem BioAssay (NCI)
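Values below derive from 48-hour exposures of cells grown in 96-well plates, with endpoints linearly interpolated between the two concentrations bracketing the appropriate inhibition level. GI50 is the concentration that inhibits growth by half. TGI denotes the concentration required for complete inhibition of growth.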

Experiments:
Assay in all cases: NCI tumour cell line growth inhibition, 48 h
[1] = tested on: A498 renal
[2] = tested on: CAKI-1 renal
[3] = tested on: OVCAR-8 ovarian
[4] = tested on: SN12C renal
[5] = tested on: DU-145 prostate
[6] = tested on: HS 578T breast
[7] = tested on: UO-31 renal
[8] = tested on: OVCAR-3 ovarian
[9] = tested on: LOX IMVI melanoma
[10] = tested on: EKVX NSCLC
[11] = tested on: NCI-H226 lung
[12] = tested on: SK-MEL-5 melanoma
[13] = tested on: HOP-62 NSCLC
[14] = tested on: HL-60(TB) leukemia
[15] = tested on: HCC-2998 colon
[16] = tested on: HOP-92 NSCLC
[17] = tested on: K-562 leukemia
[18] = tested on: OVCAR-5 ovarian
[19] = tested on: MDA-MB-435
[20] = tested on: MDA-MB-231 breast
[21] = tested on: SK-MEL-2 melanoma
[22] = tested on: NCI/ADR-RES ovarian
[23] = tested on: UACC-257 melanoma
[24] = tested on: NCI-H23 lung
[25] = tested on: SF-268 CNS
[26] = tested on: SF-539 CNS
[27] = tested on: SF-295 CNS
[28] = tested on: NCI-H522 lung
[29] = tested on: SR leukemia
[30] = tested on: U251 CNS
[31] = tested on: HCT-15 colon
[32] = tested on: RPMI-8226 leukemia
[33] = tested on: ACHN renal
[34] = tested on: MALME-3M melanoma
[35] = tested on: MCF7 breast
[36] = tested on: SK-MEL-28 melanoma
[37] = tested on: RXF 393 renal
[38] = tested on: 786-0 renal
[39] = tested on: OVCAR-4 ovarian
[40] = tested on: BT-549 breast
[41] = tested on: SNB-19 CNS
[42] = tested on: TK-10 renal
[43] = tested on: KM12 colon
[44] = tested on: UACC-62 melanoma
[45] = tested on: HT29 colon
[46] = tested on: SW-620 colon
[47] = tested on: MOLT-4 leukemia
[48] = tested on: HCT-116 colon
[49] = tested on: A549 NSCLC
[50] = tested on: COLO 205 colon
[51] = tested on: CCRF-CEM leukemia
[52] = tested on: SNB-75 CNS
[53] = tested on: PC-3 prostate
[54] = tested on: IGROV1 ovarian
[55] = tested on: NCI-H460 lung
[56] = tested on: T-47D breast
[57] = tested on: SK-OV-3 ovarian
[58] = tested on: M14 melanoma

## C#CCN(C)CCCOc1ccc(NCc2ccc(C(=O)NO)cc2)cc1Cl
[1]
  GI50: 1110 nM
  TGI: 2750 nM
[2]
  GI50: 2330 nM
  TGI: 11700 nM
[3]
  GI50: 1400 nM
  TGI: > 100000 nM
[4]
  GI50: 2690 nM
  TGI: 17400 nM
[5]
  GI50: 2190 nM
  TGI: 14800 nM
[6]
  GI50: 1850 nM
  TGI: 8630 nM
[7]
  GI50: 500 nM
  TGI: 2780 nM
[8]
  GI50: 2060 nM
  TGI: 18200 nM
[9]
  GI50: 1760 nM
  TGI: 3460 nM
[10]
  GI50: 3600 nM
  TGI: 22500 nM
[11]
  GI50: 2450 nM
  TGI: 16900 nM
[12]
  GI50: 1510 nM
  TGI: 3410 nM
[13]
  GI50: 2800 nM
  TGI: 16300 nM
[14]
  GI50: 1370 nM
  TGI: 44400 nM
[15]
  GI50: 2660 nM
  TGI: 12300 nM
[16]
  GI50: 1370 nM
  TGI: 5920 nM
[17]
  GI50: 2160 nM
  TGI: > 100000 nM
[18]
  GI50: 2380 nM
  TGI: 18400 nM
[19]
  GI50: 2590 nM
  TGI: 12400 nM
[20]
  GI50: 2100 nM
  TGI: 13600 nM
[21]
  GI50: 2770 nM
  TGI: 8660 nM
[22]
  GI50: 738 nM
  TGI: > 100000 nM
[23]
  GI50: 1420 nM
  TGI: 31100 nM
[24]
  GI50: 2180 nM
  TGI: 5830 nM
[25]
  GI50: 2720 nM
  TGI: 22900 nM
[26]
  GI50: 2050 nM
  TGI: 10300 nM
[27]
  GI50: 1840 nM
  TGI: 3800 nM
[28]
  GI50: 1070 nM
  TGI: 6510 nM
[29]
  GI50: 724 nM
  TGI: > 100000 nM
[30]
  GI50: 2160 nM
  TGI: 10000 nM
[31]
  GI50: 674 nM
  TGI: 19400 nM
[32]
  GI50: 1560 nM
  TGI: 12300 nM
[33]
  GI50: 2620 nM
  TGI: 10500 nM
[34]
  GI50: 1110 nM
  TGI: 6900 nM
[35]
  GI50: 2830 nM
  TGI: 21000 nM
[36]
  GI50: 2570 nM
  TGI: 11500 nM
[37]
  GI50: 1220 nM
  TGI: 3200 nM
[38]
  GI50: 3180 nM
  TGI: 14300 nM
[39]
  GI50: 3400 nM
  TGI: > 100000 nM
[40]
  GI50: 2760 nM
  TGI: 37300 nM
[41]
  GI50: 3080 nM
  TGI: 16800 nM
[42]
  GI50: 1910 nM
  TGI: 10100 nM
[43]
  GI50: 2670 nM
  TGI: 12600 nM
[44]
  GI50: 1610 nM
  TGI: 5270 nM
[45]
  GI50: 2960 nM
  TGI: 20500 nM
[46]
  GI50: 2180 nM
  TGI: 10600 nM
[47]
  GI50: 1460 nM
  TGI: > 100000 nM
[48]
  GI50: 1430 nM
  TGI: 10900 nM
[49]
  GI50: 2710 nM
  TGI: 15300 nM
[50]
  GI50: 2380 nM
  TGI: 6920 nM
[51]
  GI50: 632 nM
  TGI: > 100000 nM
[52]
  GI50: 2280 nM
  TGI: 16600 nM
[53]
  GI50: 1940 nM
  TGI: 22800 nM
[54]
  GI50: 1410 nM
  TGI: 4470 nM
[55]
  GI50: 2080 nM
  TGI: 14600 nM
[56]
  GI50: 1850 nM
  TGI: 18700 nM
[57]
  GI50: 2010 nM
  TGI: 10800 nM

## CN1CCN(Cc2ccc(NC(=O)c3cncc(C#Cc4cnc5ccc(OCC6COC6)nn45)c3)cc2C(F)(F)F)CC1
[1]
  GI50: 483 nM
  TGI: 1110 nM
[2]
  GI50: 117 nM
  TGI: 432 nM
[3]
  GI50: 163 nM
  TGI: 600 nM
[4]
  GI50: 141 nM
  TGI: 609 nM
[5]
  GI50: 177 nM
  TGI: 573 nM
[6]
  GI50: 235 nM
  TGI: 1320 nM
[7]
  GI50: 167 nM
  TGI: 558 nM
[8]
  GI50: 214 nM
  TGI: 705 nM
[9]
  GI50: 165 nM
  TGI: 620 nM
[10]
  GI50: 273 nM
  TGI: 954 nM
[11]
  GI50: 50.4 nM
  TGI: 709 nM
[12]
  GI50: 552 nM
  TGI: 1170 nM
[58]
  GI50: 88.9 nM
  TGI: 205 nM
[13]
  GI50: 175 nM
  TGI: 589 nM
[14]
  GI50: 121 nM
  TGI: 412 nM
[15]
  GI50: 310 nM
  TGI: 1110 nM
[16]
  GI50: 28 nM
  TGI: 166 nM
[17]
  GI50: 5 nM
  TGI: 5120 nM
[18]
  GI50: 222 nM
  TGI: 812 nM
[19]
  GI50: 144 nM
  TGI: 615 nM
[20]
  GI50: 95 nM
  TGI: 445 nM
[21]
  GI50: 103 nM
  TGI: 237 nM
[22]
  GI50: 195 nM
  TGI: 1260 nM
[23]
  GI50: 384 nM
  TGI: 1070 nM
[24]
  GI50: 151 nM
  TGI: 693 nM
[25]
  GI50: 189 nM
  TGI: 629 nM
[26]
  GI50: 165 nM
  TGI: 795 nM
[27]
  GI50: 443 nM
  TGI: 1120 nM
[28]
  GI50: 97.7 nM
  TGI: 226 nM
[29]
  GI50: 147 nM
  TGI: 517 nM
[30]
  GI50: 251 nM
  TGI: 935 nM
[31]
  GI50: 153 nM
  TGI: 568 nM
[32]
  GI50: 269 nM
  TGI: 1260 nM
[33]
  GI50: 167 nM
  TGI: 605 nM
[34]
  GI50: 89.5 nM
  TGI: 314 nM
[35]
  GI50: 96 nM
  TGI: 528 nM
[36]
  GI50: 218 nM
  TGI: 809 nM
[37]
  GI50: 159 nM
  TGI: 457 nM
[38]
  GI50: 272 nM
  TGI: 847 nM
[39]
  GI50: 193 nM
  TGI: 979 nM
[40]
  GI50: 538 nM
  TGI: 1180 nM
[41]
  GI50: 363 nM
  TGI: 2050 nM
[42]
  GI50: 187 nM
  TGI: 570 nM
[43]
  GI50: 5 nM
  TGI: 451 nM
[44]
  GI50: 155 nM
  TGI: 717 nM
[45]
  GI50: 166 nM
  TGI: 687 nM
[46]
  GI50: 160 nM
  TGI: 599 nM
[47]
  GI50: 129 nM
  TGI: 941 nM
[48]
  GI50: 91.1 nM
  TGI: 306 nM
[49]
  GI50: 174 nM
  TGI: 655 nM
[50]
  GI50: 103 nM
  TGI: 222 nM
[51]
  GI50: 184 nM
  TGI: 3880 nM
[52]
  GI50: 182 nM
  TGI: 541 nM
[53]
  GI50: 244 nM
  TGI: 1450 nM
[54]
  GI50: 142 nM
  TGI: 583 nM
[55]
  GI50: 189 nM
  TGI: 676 nM
[56]
  GI50: 355 nM
  TGI: 1430 nM
[57]
  GI50: 244 nM
  TGI: 927 nM
